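Test compounds were applied to cells in 96-well plates for 48 hours at 5 doses. GI50 marks 50% less growth.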 Calls of active or inactive are those of the source. Rule as the data show it: active = GI50 up to about 1.1 µM and inactive = higher.
Tests used:
Assay in all cases: NCI-60 cell line screen, 48 h
CCRF-CEM = tested on: CCRF-CEM
COLO 205 = tested on: COLO 205
EKVX = tested on: EKVX
HCC 2998 = tested on: HCC 2998
HOP-62 = tested on: HOP-62
K562 = tested on: K562
KM12 = tested on: KM12
LOX IMVI = tested on: LOX IMVI
MDA-MB-435 = tested on: MDA-MB-435
OVCAR-3 = tested on: OVCAR-3
OVCAR-4 = tested on: OVCAR-4
SF-295 = tested on: SF-295
SF-539 = tested on: SF-539
SW-620 = tested on: SW-620
UACC-257 = tested on: UACC-257
UACC-62 = tested on: UACC-62
A549 = tested on: A549
MDA-MB-231 = tested on: MDA-MB-231
RPMI-8226 = tested on: RPMI-8226
A498 = tested on: A498

SMILES | GI50 (CCRF-CEM) | GI50 (COLO 205) | GI50 (EKVX) | GI50 (HCC 2998) | GI50 (HOP-62) | GI50 (K562) | GI50 (KM12) | GI50 (LOX IMVI) | GI50 (MDA-MB-435) | GI50 (OVCAR-3) | GI50 (OVCAR-4) | GI50 (SF-295) | GI50 (SF-539) | GI50 (SW-620) | GI50 (UACC-257) | GI50 (UACC-62) | GI50 (A549) | GI50 (MDA-MB-231) | GI50 (RPMI-8226) | GI50 (A498)
c1ccc(Nc2nnc(-c3ccccc3Nc3ccccc3-c3nnc(Nc4ccccc4)s3)s2)cc1 | > 100 µM (inactive) | > 100 µM (inactive) | > 100 µM (inactive) | > 100 µM (inactive) | > 100 µM (inactive) | > 100 µM (inactive) | > 100 µM (inactive) | > 100 µM (inactive) | > 100 µM (inactive) | > 100 µM (inactive) | > 100 µM (inactive) | > 100 µM (inactive) | > 100 µM (inactive) | > 100 µM (inactive) | > 100 µM (inactive) | > 100 µM (inactive) | – | – | – | –
N#Cc1c(N)nc(Sc2ccccc2N)c(C#N)c1-c1ccccc1 | – | 35.7 µM (inactive) | 16.2 µM (inactive) | 15 µM (inactive) | 22.1 µM (inactive) | 9.53 µM (inactive) | 17.8 µM (inactive) | 12.9 µM (inactive) | 23.6 µM (inactive) | – | 15.9 µM (inactive) | – | 26.9 µM (inactive) | 30.9 µM (inactive) | 24.9 µM (inactive) | 10.3 µM (inactive) | 19.4 µM (inactive) | 14 µM (inactive) | 12.7 µM (inactive) | –
COCC1N=C(c2ccc(OC)c(OCc3ccccc3)c2OC)O[C@H]1c1ccccc1 (stereo not given in full) | 15.3 µM (inactive) | 18.1 µM (inactive) | 34 µM (inactive) | 35.6 µM (inactive) | 37.2 µM (inactive) | 12.3 µM (inactive) | 21.2 µM (inactive) | 13.9 µM (inactive) | – | 16 µM (inactive) | 20.5 µM (inactive) | 25.6 µM (inactive) | 17.4 µM (inactive) | 34.8 µM (inactive) | – | 15.8 µM (inactive) | 24.5 µM (inactive) | – | 5.65 µM (inactive) | 6.19 µM (inactive)
Cc1nc(-c2nc([N+](=O)[O-])c([N+](=O)[O-])[nH]2)cs1 | > 100 µM (inactive) | > 100 µM (inactive) | > 100 µM (inactive) | > 100 µM (inactive) | > 100 µM (inactive) | > 100 µM (inactive) | > 100 µM (inactive) | > 100 µM (inactive) | – | > 100 µM (inactive) | > 100 µM (inactive) | > 100 µM (inactive) | > 100 µM (inactive) | > 100 µM (inactive) | > 100 µM (inactive) | > 100 µM (inactive) | > 100 µM (inactive) | – | > 100 µM (inactive) | > 100 µM (inactive)
CCCCCCCC/C=C\CCCCCCCC(=O)O [OLEIC ACID] | 99.8 µM (inactive) | > 500 µM (inactive) | 124 µM (inactive) | > 434 µM (inactive) | > 500 µM (inactive) | 104 µM (inactive) | 240 µM (inactive) | 116 µM (inactive) | – | 184 µM (inactive) | > 291 µM (inactive) | 99.1 µM (inactive) | 103 µM (inactive) | 140 µM (inactive) | 105 µM (inactive) | 180 µM (inactive) | 109 µM (inactive) | – | 91.6 µM (inactive) | > 431 µM (inactive)
O=C1NN=C(c2ccc([N+](=O)[O-])cc2)C1n1nc(-c2ccccc2)c2ccccc2c1=O (stereo not given) | > 65.5 µM (inactive) | > 60.8 µM (inactive) | > 100 µM (inactive) | > 100 µM (inactive) | > 100 µM (inactive) | > 54.5 µM (inactive) | > 100 µM (inactive) | > 76.9 µM (inactive) | – | > 100 µM (inactive) | > 100 µM (inactive) | > 100 µM (inactive) | > 100 µM (inactive) | > 34.2 µM (inactive) | > 100 µM (inactive) | > 100 µM (inactive) | > 80 µM (inactive) | – | > 48.6 µM (inactive) | > 100 µM (inactive)
O=C1C(=O)N(c2cc(Cl)ccc2Cl)C(=O)C(=O)C1c1nc2ccccc2o1 | 30.2 µM (inactive) | > 100 µM (inactive) | > 100 µM (inactive) | > 100 µM (inactive) | > 100 µM (inactive) | 61.1 µM (inactive) | > 31.6 µM (inactive) | > 100 µM (inactive) | – | > 67.5 µM (inactive) | > 100 µM (inactive) | > 100 µM (inactive) | > 100 µM (inactive) | > 100 µM (inactive) | > 100 µM (inactive) | > 100 µM (inactive) | > 100 µM (inactive) | – | > 100 µM (inactive) | > 100 µM (inactive)
CN(C)CC(CC1=C(CC(CN(C)C)N(C)C)CCC1)N(C)C (stereo not given) | > 100 µM (inactive) | > 100 µM (inactive) | > 100 µM (inactive) | > 100 µM (inactive) | > 100 µM (inactive) | > 100 µM (inactive) | > 100 µM (inactive) | > 100 µM (inactive) | – | > 100 µM (inactive) | > 100 µM (inactive) | > 100 µM (inactive) | > 100 µM (inactive) | > 100 µM (inactive) | > 100 µM (inactive) | > 100 µM (inactive) | > 100 µM (inactive) | – | > 100 µM (inactive) | > 100 µM (inactive)
NC(=O)c1csc(CCCCCCc2nc(C(N)=O)cs2)n1 | > 43.5 µM (inactive) | > 59.3 µM (inactive) | > 100 µM (inactive) | > 100 µM (inactive) | > 100 µM (inactive) | > 39.1 µM (inactive) | > 59.4 µM (inactive) | > 61.7 µM (inactive) | – | > 100 µM (inactive) | > 57.7 µM (inactive) | > 100 µM (inactive) | > 100 µM (inactive) | > 40.3 µM (inactive) | > 62.5 µM (inactive) | > 100 µM (inactive) | > 100 µM (inactive) | – | > 50.9 µM (inactive) | > 100 µM (inactive)
CC(=O)c1ccc2c(c1)c1c(C)c3c[n+](C)ccc3c(C)c1n2C | 3.76 µM (inactive) | 9.57 µM (inactive) | 33.3 µM (inactive) | 29.5 µM (inactive) | 7.36 µM (inactive) | 14.8 µM (inactive) | 10.6 µM (inactive) | 4.63 µM (inactive) | – | 12 µM (inactive) | 4.85 µM (inactive) | 0.885 µM (active) | 2.37 µM (inactive) | 1.03 µM (active) | 6.35 µM (inactive) | 1.87 µM (inactive) | 13.9 µM (inactive) | – | 3.84 µM (inactive) | 6.41 µM (inactive)
CN(C)/C(=N\C#N)N(Cc1ccccc1)Cc1ccccc1 | 44.2 µM (inactive) | 74 µM (inactive) | > 100 µM (inactive) | 72.1 µM (inactive) | > 100 µM (inactive) | 17.9 µM (inactive) | > 100 µM (inactive) | 36.6 µM (inactive) | – | > 100 µM (inactive) | > 100 µM (inactive) | 68.4 µM (inactive) | > 100 µM (inactive) | 17.9 µM (inactive) | > 100 µM (inactive) | 62.4 µM (inactive) | > 100 µM (inactive) | – | 32.5 µM (inactive) | 49 µM (inactive)
Cc1cc(O)c(C(C)C)cc1C(=S)Nc1ccc(Cl)cc1 | 3.66 µM (inactive) | 16.1 µM (inactive) | 12.7 µM (inactive) | 15.1 µM (inactive) | 18.5 µM (inactive) | 4.35 µM (inactive) | 10.1 µM (inactive) | 11.2 µM (inactive) | 10.6 µM (inactive) | 14.7 µM (inactive) | 7.19 µM (inactive) | 14.2 µM (inactive) | 14.3 µM (inactive) | 14.3 µM (inactive) | 10.9 µM (inactive) | 10 µM (inactive) | – | – | 8.3 µM (inactive) | 15.1 µM (inactive)
C/C(=C\c1ccccc1)C(O)C(=O)c1nc2ccc(Cl)cc2nc1O (stereo not given) | 13.6 µM (inactive) | > 100 µM (inactive) | 91.2 µM (inactive) | > 100 µM (inactive) | > 100 µM (inactive) | 55.5 µM (inactive) | > 100 µM (inactive) | > 100 µM (inactive) | – | 55.2 µM (inactive) | 26 µM (inactive) | > 100 µM (inactive) | > 100 µM (inactive) | > 100 µM (inactive) | > 100 µM (inactive) | > 100 µM (inactive) | > 100 µM (inactive) | – | 12.5 µM (inactive) | > 100 µM (inactive)
COc1ccc(C2=N/C(=C\c3ccccc3)C(=O)O2)cc1 | 31 µM (inactive) | – | > 100 µM (inactive) | 75.9 µM (inactive) | 38.7 µM (inactive) | 34 µM (inactive) | 36.6 µM (inactive) | – | > 100 µM (inactive) | 53.7 µM (inactive) | 37.1 µM (inactive) | > 100 µM (inactive) | 44.3 µM (inactive) | > 100 µM (inactive) | > 100 µM (inactive) | – | > 100 µM (inactive) | – | 36.6 µM (inactive) | –
N=c1oc2cc(O)c(O)cc2cc1C(N)=O | 33 µM (inactive) | > 100 µM (inactive) | > 100 µM (inactive) | > 100 µM (inactive) | > 100 µM (inactive) | > 100 µM (inactive) | > 100 µM (inactive) | > 100 µM (inactive) | – | > 100 µM (inactive) | > 100 µM (inactive) | > 100 µM (inactive) | > 100 µM (inactive) | > 100 µM (inactive) | > 100 µM (inactive) | > 100 µM (inactive) | > 100 µM (inactive) | – | > 100 µM (inactive) | > 100 µM (inactive)
CN(C)C(=O)/C=C/c1c[nH]c(=O)[nH]c1=O | > 500 µM (inactive) | > 500 µM (inactive) | > 281 µM (inactive) | > 500 µM (inactive) | > 500 µM (inactive) | > 500 µM (inactive) | > 500 µM (inactive) | > 500 µM (inactive) | – | > 500 µM (inactive) | > 500 µM (inactive) | > 500 µM (inactive) | > 500 µM (inactive) | > 500 µM (inactive) | > 500 µM (inactive) | > 500 µM (inactive) | > 500 µM (inactive) | – | > 316 µM (inactive) | > 500 µM (inactive)
